US20240041902A1, “COMPOSITIONS AND METHODS FOR THE TREATMENT OF UROTHELIAL CANCER” (The State of Israel, Ministry of Agriculture & Rural …, priority 2020, published 2024)
Where two headings read alike, the source gives them in different places.

Assays:
Format in all cases: cell-based, human
T24 cells [1] = experiment: Bliss independence drug interaction model on T24 cell viability; details: for inhibition at 1 µg/mL / inhibition at 2 µg/mL / inhibition at 3 µg/mL / inhibition at 5 µg/mL / inhibition at 7.5 µg/mL / inhibition at 10 µg/mL / inhibition at 12.5 µg/mL: Homo sapiens, T-24
Experimental: (§1) Cell proliferation assay—XTT assay was carried out as described in [34], on T24 and HTB-9 cells. 1*10^4 cells/well were seeded in 96-wells plates, methanol was used as a vehicle control at the same concentration as the treatments. Mitomycin-C (MMC) was used as positive control. Cell viability was calculated relative to the vehicle control after subtracting blank.
Analysis of combined drug effects—Drug synergy was determined by the Bliss independence drug interaction model as described in [31], on T24 cells.

T24 cells [2] = experiment: Cell migration scratch assay; details: sub-lethal: CBD 10, CBC+THC 8.6+1.4, MMC 4, CBC 10, THC 10 μg/mL; vs control
Experimental: The scratch area, indicated by the cells that migrated to the scratch at time x, was calculated as the percentage of the scratch area at time x from time 0: […]

CB2 receptor (CNR2) = experiment: qRT-PCR of CB2 receptor RNA level in T24 cells; details: 6 hours; CBC+THC 11.2+1.8 μg/mL or CBD 9.2 μg/mL; relative to control, HPRT1 reference
Experimental: (§2) Quantitative real-time (qRT) PCR—qRT PCR was carried out as described in [34]. Briefly, T24 cells were treated with cannabis compounds or methanol as a vehicle control for 6 h. Cells were then harvested and total RNA was isolated and reverse-transcribed. The expression of each target gene was normalized to the expression of Hypoxanthine Phosphoribosyltransferase 1 (HPRT1; geneID 3251) mRNA as the 2^−ΔΔCt and is presented as the ratio of the target gene to HPRT1 mRNA, expressed as 2^−ΔCt, where Ct is the threshold cycle and ΔCt=Ct Target gene—Ct HPRT1. Experiments were repeated three times. The primers were: for CB1 (CNR1; geneID 1268) forward 5′-[…]-3′ (SEQ ID NO: 1) and reverse 5′-[…]-3′ (SEQ ID NO: 2); for CB2 (CNR2; geneID 1269) forward 5′-[…]-3′ (SEQ ID NO: 3) and reverse 5′-[…]-3′ (SEQ ID NO: 4).

T24 cells [3] = experiment: XTT viability of T24 cells with or without CB1/CB2 inverse agonist, TRPV1/TRPV2 antagonist or TRPA1 blocker; details: CBD 13.8 μg/mL; inverse agonist 10 μM
Experimental: For quantification of phytocannabinoids by analytical HPLC, the standards were dissolved in methanol at various concentrations from 0-25 μg/mL.
as §1

T24 cells [4] = experiment: Cell cycle analysis (PI staining, FACS); details: 24 hours; CBD 15 μg/mL; insignificant increase, control 17.4%
Experimental: For cell cycle analysis, cells were seeded in 6-wells culture plates at a concentration of 5×10^5 cells per well in McCoy (for T24 cells). The following day, media was replaced with new media containing treatments or methanol control. Cells were then incubated for 24 h at 37° C. in a humidified 5% CO2, 95% air atmosphere. Following 24 h of incubation, media was replaced with new media containing treatment or methanol control. Cells from each well were then harvested and collected separately and centrifuged for 2 min at 900 g. The cell pellet was washed once with 1 mL of PBS and fixed with 70% cold ethanol at 4° C. for at least 1 h. The fixed cells were pelleted out and washed twice with 1 mL of PBS. The cell pellet was then stained by re-suspending in 250 μL of PI solution (50 μg/mL) containing RNase A (100 μg/mL) for 30 min in the dark. Following, 200 μL of PBS were added to each tube and cells were analyzed using FACS.
Cell proliferation assay—XTT assay was carried on T24 and HTB-9 cells. 1×10^4 cells/well were seeded in 96-well plates. […] MMC was used as a positive control. XTT reagent (2,3,-bis (2-methoxy-4-nitro-5-sulfophenyl)-5-[(phenylamino)-carbonyl]-2H-tetrazolium inner salt) was added for 2 h at 37° C. in a humidified atmosphere of 5% CO2 to 95% air. Absorbance was recorded by a Synergy 111 hybrid reader photometer (BioTek) at 490 nm with 650 nm of reference wavelength. Cell survival (% r, viability) was estimated using the equation: % cell survival=(A490−A650) of treatment/(A490−A650) of solvent control×100. A490 and A650 are the absorbencies of the XTT colorimetric reaction. […] Apoptosis assay and cell cycle analysis—T24 cells were treated with cannabis compounds or with methanol as vehicle control. The cell cycle was determined at 24 hours and apoptosis was determined at 48 hours following treatment. Staining and detection followed the manufacturer's instructions. […] Then 200 μL of PBS was added to each tube and the cells were analyzed using FACS.

T24 cells [5] = experiment: Cytoskeleton (F-actin) staining, confocal; details: 24 hours; CBC+THC 8.6+1.4, CBD 10 μg/mL
Experimental: Cytoskeleton staining—T24 cell were seeded on glass bottom cell culture dishes and fixed with 3.7% formaldehyde solution and permeabilized with 0.1% Triton X-100 at room temperature. Fixed cells were blocked in Phosphate Buffered Saline (PBS) containing 1% bovine serum albumin. For actin and nuclear staining cells were incubated with EasyProbes ActinRed 555 Stain, and Hoechst, respectively. Image acquisition was effected using a Leica SP8 laser scanning microscope (Wetzlar, Germany), equipped with a 405 and 552 nm solid state lasers, HCX PL APO CS 10×/0.40 or HC PL APO CS 60×/1.2 water immersion objectives (Leica, Wetzlar, Germany) and Leica Application Suite X software (Wetzlar, Germany). Hoechst and ActinRed 555 emission signals were detected with PMT and HyD (hybrid) detectors in ranges of 415-490 and 565-660 nm, respectively. At least 3 images were captured from each slide, and experiments were repeated 4 times.

CB1 receptor (CNR1) = experiment: qRT-PCR of CB1 receptor RNA level in T24 cells; details: 6 hours; CBC+THC 11.2+1.8 μg/mL or CBD 9.2 μg/mL; relative to control, HPRT1 reference
Experimental: as §2

T24 cells [6] = experiment: Apoptosis assay (Annexin V-FITC and PI, FACS); details: 48 hours; CBC+THC 17.2+2.8, CBD 15, MMC 8 μg/mL; control 46.2%
Experimental: Apoptosis assay and cell cycle analysis—T24 cells were treated with cannabis compounds or with methanol as a vehicle control. Cell cycle was determined at 24 h and apoptosis was determined at 48 h post-treatment. Staining and detection followed manufacturer instructions. Briefly, for the apoptosis assay, the MEBCYTO Apoptosis Kit with Annexin V-FITC and PI (MBL, Enco, 4700) was used. Cells were seeded in culture 6-wells plates, at density of 5×10^5 cells per well in McCoy's 5A (for T24 a cells) or in RPMI (for HTB-9 cells). The following day, media was replaced with new media containing treatment or methanol control. Cells were then incubated for 24 or 48 h at 37° C. in a humidified 5% CO2 95% air atmosphere. Following incubation, cells were harvested and collected separately. Tubes were centrifuged for 2 min at 900 g and cell pellets were resuspended and washed twice with 1 mL of PBS. The cells in each sample were resuspended in 85 μL of Annexin binding buffer. Cells were stained using 10 μL of Annexin V-FITC solution and 5 μL of propidium iodide (PI) working solution followed by 15 min incubation in the dark at room temperature. Then 400 μL of Annexin V binding buffer were added to each tube and flow cytometry was performed using a FORTESA flow cytometer (FACS). Cells were considered to be apoptotic if they were Annexin V+/PI− (early apoptotic) or Annexin V+/PI+ (late apoptotic). Live cells were defined as Annexin V−/PI−, and Annexin V−/PI+ as necrotic.
Cell proliferation assay—XTT assay was carried on T24 and HTB-9 cells. 1×10^4 cells/well were seeded in 96-well plates. […] MMC was used as a positive control. […] Absorbance was recorded by a Synergy 111 hybrid reader photometer (BioTek) at 490 nm with 650 nm of reference wavelength. […] The cell cycle was determined at 24 hours and apoptosis was determined at 48 hours following treatment. […] Then 200 μL of PBS was added to each tube and the cells were analyzed using FACS.

## CCCCCc1cc(O)c2c(c1)OC(C)(CCC=C(C)C)C=C2 (stereo not drawn) [CBC, Cannabichromene]
T24 cells [1]; CBC 3.5 + THC 0 μg/ml
  Calculated (expected) value of cell survival inhibition: −0.2617
  Delta between observed and experimental values calculated according to Bliss model: 1.26E−10
  Experimental (observed) value of cell survival inhibition: −0.2617
T24 cells [1]; CBC 5.5 + THC 0 μg/ml
  Calculated (expected) value of cell survival inhibition: 0.003989
  Delta between observed and experimental values calculated according to Bliss model: 9.96E−11
  Experimental (observed) value of cell survival inhibition: 0.003989
T24 cells [1]; CBC 7.5 + THC 0 μg/ml
  Calculated (expected) value of cell survival inhibition: −0.05563
  Delta between observed and experimental values calculated according to Bliss model: 1.06E−10
  Experimental (observed) value of cell survival inhibition: −0.05563
T24 cells [1]; CBC 9.5 + THC 0 μg/ml
  Calculated (expected) value of cell survival inhibition: −0.061
  Delta between observed and experimental values calculated according to Bliss model: 1.06E−10
  Experimental (observed) value of cell survival inhibition: −0.061
T24 cells [1]; CBC 11.5 + THC 0 μg/ml
  Calculated (expected) value of cell survival inhibition: 0.2028
  Delta between observed and experimental values calculated according to Bliss model: 7.97E−11
  Experimental (observed) value of cell survival inhibition: 0.2028
T24 cells [1]; CBC 13.5 + THC 0 μg/ml
  Calculated (expected) value of cell survival inhibition: 0.5088
  Delta between observed and experimental values calculated according to Bliss model: 4.91E−11
  Experimental (observed) value of cell survival inhibition: 0.5088
T24 cells [2]
  cell migration into the scratch: reduced cell migration to a lesser extent than treatment with CBC+THC

## CCCCCc1cc(O)c2c(c1)OC(C)(C)[C@@H]1CCC(C)=C[C@@H]21 [THC, Tetrahydrocannabinol]
T24 cells [1]; CBC 0 + THC 1 μg/ml
  Delta between observed and experimental values calculated according to Bliss model: 0
T24 cells [1]; CBC 0 + THC 2 μg/ml
  Delta between observed and experimental values calculated according to Bliss model: 0
T24 cells [1]; CBC 0 + THC 3 μg/ml
  Delta between observed and experimental values calculated according to Bliss model: 0
T24 cells [1]; CBC 0 + THC 5 μg/ml
  Delta between observed and experimental values calculated according to Bliss model: 0
T24 cells [1]; CBC 0 + THC 7.5 μg/ml
  Delta between observed and experimental values calculated according to Bliss model: 0
T24 cells [1]; CBC 0 + THC 10 μg/ml
  Delta between observed and experimental values calculated according to Bliss model: 0
T24 cells [1]; CBC 0 + THC 12.5 μg/ml
  Delta between observed and experimental values calculated according to Bliss model: 0
T24 cells [1]; CBC 0 + THC 1 μg/ml, read-out: Calculated (expected) value of cell survival inhibition
  inhibition at 1 µg/mL: -1.14%
T24 cells [1]; CBC 0 + THC 1 μg/ml, read-out: Experimental (observed) value of cell survival inhibition
  inhibition at 1 µg/mL: -1.14%
T24 cells [1]; CBC 0 + THC 2 μg/ml, read-out: Calculated (expected) value of cell survival inhibition
  inhibition at 2 µg/mL: -3.21%
T24 cells [1]; CBC 0 + THC 2 μg/ml, read-out: Experimental (observed) value of cell survival inhibition
  inhibition at 2 µg/mL: -3.21%
T24 cells [1]; CBC 0 + THC 3 μg/ml, read-out: Calculated (expected) value of cell survival inhibition
  inhibition at 3 µg/mL: -1.37%
T24 cells [1]; CBC 0 + THC 3 μg/ml, read-out: Experimental (observed) value of cell survival inhibition
  inhibition at 3 µg/mL: -1.37%
T24 cells [1]; CBC 0 + THC 5 μg/ml, read-out: Calculated (expected) value of cell survival inhibition
  inhibition at 5 µg/mL: 4.88%
T24 cells [1]; CBC 0 + THC 5 μg/ml, read-out: Experimental (observed) value of cell survival inhibition
  inhibition at 5 µg/mL: 4.88%
T24 cells [1]; CBC 0 + THC 7.5 μg/ml, read-out: Calculated (expected) value of cell survival inhibition
  inhibition at 7.5 µg/mL: -1.83%
T24 cells [1]; CBC 0 + THC 7.5 μg/ml, read-out: Experimental (observed) value of cell survival inhibition
  inhibition at 7.5 µg/mL: -1.83%
T24 cells [1]; CBC 0 + THC 10 μg/ml, read-out: Calculated (expected) value of cell survival inhibition
  inhibition at 10 µg/mL: 4.23%
T24 cells [1]; CBC 0 + THC 10 μg/ml, read-out: Experimental (observed) value of cell survival inhibition
  inhibition at 10 µg/mL: 4.23%
T24 cells [1]; CBC 0 + THC 12.5 μg/ml, read-out: Calculated (expected) value of cell survival inhibition
  inhibition at 12.5 µg/mL: 27%
T24 cells [1]; CBC 0 + THC 12.5 μg/ml, read-out: Experimental (observed) value of cell survival inhibition
  inhibition at 12.5 µg/mL: 27%
T24 cells [2]
  cell migration into the scratch: had no effect on cell migration

## C=C(C)[C@@H]1CCC(C)=C[C@H]1c1c(O)cc(CCCCC)cc1O [CBD, Cannabidiol]
CB2 receptor (CNR2)
  CB2 receptor RNA level induction: 2.32 fold
T24 cells [3]
  effect of CB1 and CB2 inverse agonists on CBD cytotoxicity: Only CB2 inverse agonist completely abolished cytotoxicity
T24 cells [4]
  G2/M-phase cells: 38.3%
T24 cells [5]
  F-actin filaments in the cell periphery: induced accumulation of F-actin filaments in the cell periphery
CB1 receptor (CNR1)
  CB1 receptor RNA level induction: 1.35 fold
T24 cells [6]
  cell apoptosis: 81.7%
T24 cells [2]
  cell migration into the scratch: marked and significant reduction in the ability of the cells to migrate into the scratch
